Patent US5968933A, “DNA-targeted alkylating agents” (Auckland Division Cancer Society of New Zealand Inc., priority 1994, dated 1999)
Like-named read-outs stand apart in the source and are kept apart here.

Test system: P388 cells
Test: Growth inhibition in vitro, P388 leukaemia
Assay type: cell-based, murine
Description: Representative examples of compounds of the invention were tested for biological activity against tumors. Compounds 1 to 6 and 14 to 21, prepared as described above, were tested for their ability to inhibit growth in vitro of cells of the wild-type murine leukaemia cell line P388, and the cell line AA8 which is derived from Chinese hamster ovary cells. For each compound, the IC50, ie. the concentration of compound which inhibited cell growth in treated cultures to 50% of that of controls, was determined, using means of three determinations. In addition, a hypersensitivity factor was determined by comparing activity of the compounds against AA8 cells to activity against UV4. The latter cell line is deficient in aspects of the excision repair pathway for removing DNA adducts, and is hypersensitive to DNA-alkylating agents, especially interstrand crosslinking agents. Previous work has shown that the ratio of IC50 s determined in the wild-type AA8 and mutant UV4 lines (the hypersensitivity factor HF) is a determinant of the mode of cell killing by alkylating agents (Palmer, B. D. et al, J. Med. Chem., 1990 33 112-121; Wilson, W. R. et al, J. Med. Chem., 1989 32 31-38). Compounds with HFs of ca. 1 are unlikely to kill cells via DNA alkylation events. Compounds which show high HF values are likely to form bulky adducts or cross-links,with the latter being especially likely for compounds showing the highest HF values (>ca. 25) (Wilson et al, op. cit.).
Cell lines were maintained in exponential growth phase by subculturing in RPMI 1640 (P338) or Alpha MEM (AA8, UV4) containing 10% fetal calf serum, as previously described (Palmer et al, op.cit.; Baguley, B. C. and Wilson, W. R., Eur. J. Cancer Clin. Oncol., 1987 23 607-613). IC50 values were determined using log-phase cultures in 96-well microculture plates, and were calculated as the nominal drug concentration required to reduce the cell density to 50% of control values, using 8 control cultures on each microplate. For P388 cultures, drug was present throughout the growth period (72 h), and final cell densities were determined using a minor modification of the MTT method of Mossman (Mossman, T., J. Immunol. Methods, 1983 65 55-63). For AA8 and UV4 cultures, drug exposure was terminated after 18 h by washing three times with fresh medium. Cultures were then grown for a further 72 h before determining cell density by staining with methylene blue (Finlay, G. J. et al, Anal. Biochem., 1984 139 272-277).

[1] = P388 cells, 72 h, MTT, read-out: IC50

Structure (SMILES)	IC50 (Mus musculus, P388, 72 h)	IC50 [1]
CCN(CCCl)c1ccc(CCCCCCc2nc3ccc(-c4nc5ccc(N6CCN(C)CC6)cc5[nH]4)cc3[nH]2)cc1 [Compound 16, 2-[2-[6-[4-(N-ethyl-N-(2-chloroethyl)amino)phenyl]hexyl]-5-benzimidazolyl]-5-(1-methyl-4-piperazinyl)benzimidazole]	370 nM	
CCN(CCCl)c1ccc(Cc2nc3ccc(-c4nc5ccc(N6CCN(C)CC6)cc5[nH]4)cc3[nH]2)cc1 [Compound 17, 2-[2-[[4-(N-ethyl-N-(2-chloroethyl)amino)phenyl]methyl]-5-benzimidazoyl]-5-(1-methyl-4-piperazinyl)benzimidazole]	90 nM	
CN1CCN(c2ccc3nc(-c4ccc5nc(CCCc6cccc(N(CCCl)CCCl)c6)[nH]c5c4)[nH]c3c2)CC1 [Compound 18]		> 1000 nM
CCN(CCCl)c1cccc(CCCc2nc3ccc(-c4nc5ccc(N6CCN(C)CC6)cc5[nH]4)cc3[nH]2)c1 [Compound 19, 2-[2-[3-[3-(N-ethyl-N-(2-chloroethyl)amino)phenyl]propyl]-5-benzimidazolyl]-5-(1-methyl-4-piperazinyl)-benzimidazole]	< 60 nM	
CN1CCN(c2ccc3nc(-c4ccc5nc(CCCc6ccccc6N(CCCl)CCCl)[nH]c5c4)[nH]c3c2)CC1 [Compound 20]		610 nM
CCN(CCCl)c1ccccc1CCCc1nc2ccc(-c3nc4ccc(N5CCN(C)CC5)cc4[nH]3)cc2[nH]1 [Compound 21, 2-[2-[3-[2-(N-ethyl-N-(2chloroethyl)amino)phenyl]propyl]-5-benzimidazolyl]-5-(1-methyl-4-piperazinyl)-benzimidazole]	< 60 nM	
